Assay results: US20060281813A1, “Methods of treating hyperproliferative cell disorders” (priority 2003, published 2006)
Residue numbers refer to the chain shown, from its start. pIC50: −log10 of the molar value.

How the values were obtained:
[1] = tested on: non small cell lung cancer; experiment: Example 2: patient with non small cell lung cancer; assay type: in vivo, human; conditions: 75 mg per day with IRESSA 250 mg per day for two months
Method: A patient suffering from non small cell lung cancer was treated with IRESSA® (250 mg per day) for two months. The disease progressed during the treatment and thae patient was continued on IRESSA® (250 mg per day) with daily dosage of 4-oxo-retinol (75 mg per day) for two months. The disease became stable and the patient continued taking IRESSA® (250 mg per day) for 4 more months without 4-oxo-retinol with a stale disease.

[2] = tested on: breast cancer, prostate cancer or leukemia; experiment: Example 4: patients with breast cancer, prostate cancer or leukemia; assay type: in vivo, human; conditions: oral 100 mg/square meter with oral IRESSA
[3] = tested on: advanced head and neck cancer; experiment: Example 5: patients with advanced head and neck cancer; assay type: in vivo, human; conditions: oral 100 mg/square meter with oral IRESSA or intravenous C-225
Source text: Current systemic chemotherapy regimens are unable to prolong survival of patients with advanced head and neck cancer.

lung cancer [4] = experiment: Example 6: patients with lung cancer; assay type: in vivo, human; conditions: oral 100 mg/square meter with oral IRESSA
lung cancer [5] = experiment: Example 7: lung cancer patients with disease progression on IRESSA alone; assay type: in vivo, human; conditions: added to IRESSA, oral 100 mg/square meter, optionally calcitriol 0.1-1 mcg per day
monomeric mouse RARa = biological target: T1, monomeric mouse RARa (Mus musculus, UniProt P11416); conditions: read-out: IC50, ability to displace all-trans RA; cited from earlier work
T1 sequence (P11416 1-462): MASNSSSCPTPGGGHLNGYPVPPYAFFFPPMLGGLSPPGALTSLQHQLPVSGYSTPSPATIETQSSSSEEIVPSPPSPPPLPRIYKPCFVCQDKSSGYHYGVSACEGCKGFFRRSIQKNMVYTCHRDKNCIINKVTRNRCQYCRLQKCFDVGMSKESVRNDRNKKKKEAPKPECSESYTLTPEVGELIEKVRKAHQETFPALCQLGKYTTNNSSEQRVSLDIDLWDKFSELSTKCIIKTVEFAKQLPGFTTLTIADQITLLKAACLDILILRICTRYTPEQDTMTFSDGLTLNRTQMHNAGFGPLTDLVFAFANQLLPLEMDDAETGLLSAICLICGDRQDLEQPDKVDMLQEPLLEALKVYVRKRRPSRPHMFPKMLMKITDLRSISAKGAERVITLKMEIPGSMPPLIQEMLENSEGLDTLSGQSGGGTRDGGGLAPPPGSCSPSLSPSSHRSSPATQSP

monomeric mouse RAR b = biological target: T2, monomeric mouse RAR b (Mus musculus, UniProt P22605); conditions: read-out: IC50, ability to displace all-trans RA; cited from earlier work
T2 sequence (P22605 1-482): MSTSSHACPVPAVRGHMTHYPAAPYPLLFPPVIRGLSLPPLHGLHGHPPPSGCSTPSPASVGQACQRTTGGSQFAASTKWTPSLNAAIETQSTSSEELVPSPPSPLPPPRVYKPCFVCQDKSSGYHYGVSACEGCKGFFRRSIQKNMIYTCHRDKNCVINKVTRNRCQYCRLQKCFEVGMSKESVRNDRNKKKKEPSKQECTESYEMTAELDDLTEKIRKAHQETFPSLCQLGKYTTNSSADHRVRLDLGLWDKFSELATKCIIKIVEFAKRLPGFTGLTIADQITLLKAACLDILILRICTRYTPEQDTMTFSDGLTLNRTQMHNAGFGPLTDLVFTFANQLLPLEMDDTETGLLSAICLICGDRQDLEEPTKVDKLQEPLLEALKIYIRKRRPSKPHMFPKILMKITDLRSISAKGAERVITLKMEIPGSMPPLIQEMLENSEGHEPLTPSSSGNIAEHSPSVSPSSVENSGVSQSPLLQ

RARγ = biological target: T3, RARγ (Mus musculus, UniProt P18911); conditions: read-out: IC50, ability to displace all-trans RA; cited from earlier work
T3 sequence (P18911 1-458): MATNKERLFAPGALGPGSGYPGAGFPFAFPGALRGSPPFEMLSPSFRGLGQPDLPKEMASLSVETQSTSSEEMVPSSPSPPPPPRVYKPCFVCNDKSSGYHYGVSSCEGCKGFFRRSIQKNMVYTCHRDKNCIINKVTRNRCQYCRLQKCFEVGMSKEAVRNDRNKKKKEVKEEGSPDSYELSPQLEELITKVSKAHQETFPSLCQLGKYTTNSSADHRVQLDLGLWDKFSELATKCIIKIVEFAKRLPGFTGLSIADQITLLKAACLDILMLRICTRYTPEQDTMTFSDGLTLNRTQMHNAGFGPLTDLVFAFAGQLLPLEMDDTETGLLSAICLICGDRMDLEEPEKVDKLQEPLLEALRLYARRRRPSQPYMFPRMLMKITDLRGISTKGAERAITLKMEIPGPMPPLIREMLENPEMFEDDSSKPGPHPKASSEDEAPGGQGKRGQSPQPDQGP

human RARα = biological target: T4, human RARα (Homo sapiens, UniProt P10276); conditions: cited from earlier work
T4 sequence (P10276 1-462): T1 sequence (P11416 1-462) with S43T, D150E, A169V, K347R, S427P, T431G, H453N, Q460H

[6] = biological target: T5, RARg ligand binding domain (Homo sapiens, UniProt P13631); conditions: CV-1 cell transfectants, cited from earlier work
T5 construct: expressed in transfected cells; host or cells: CV-1 cells

F9 cells = conditions: similar to all-trans RA; cited from earlier work
Xenopus laevis = Xenopus laevis system; cited from earlier work
[7] = tested on: F9 embryonal mouse teratocarcinoma cells; conditions: in F9 cells; cited from earlier work

T5 sequence (P04386 1-147 partner limits assumed, species assumed, one chain of several): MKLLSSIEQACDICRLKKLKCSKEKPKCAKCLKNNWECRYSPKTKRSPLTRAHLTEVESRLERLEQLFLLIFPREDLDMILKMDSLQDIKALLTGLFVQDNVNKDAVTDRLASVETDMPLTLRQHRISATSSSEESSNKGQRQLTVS

Q: Which results are given for `CC(C=CC1=C(C)C(=O)CCC1(C)C)=CC=CC(C)=CCO` [4-oxo-retinol]?
A: disease course [1]: stable; tumor burden versus IRESSA alone [2]: reduced tumor burden; survival rate versus IRESSA or C-225 alone [3]: better survival rate; tumor burden versus IRESSA alone (lung cancer [4]): reduced tumor burden; tumor burden (lung cancer [5]): reduced tumor burden; pIC50 (monomeric mouse RARa): 6.48; pIC50 (monomeric mouse RAR b): 6.38; pIC50 (RARγ): 5.49; RARα-mediated transactivation (human RARα): potently induced transactivation; activity on GAL4 chimeras by RAR ligand binding domain ([6]; chimera with ligand binding domain of RARg): highest activity; RARg activation compared with all-trans RA [6]: greater ability to induce RARg activation than all-trans RA; differentiation of F9 cells (F9 cells): induces differentiation; ED50, teratogenicity (Xenopus laevis): 300 to 400 nM; half-life [7]: > 15 h
